# From publication PMC9666555, “Genuine selective caspase-2 inhibition with new irreversible small peptidomimetics” (Cell Death & Disease, 2022)
# Test system: Casp2-mediated Mdm-2 cleavage in H9 hESC-derived NPCs
# Assay: Reversine-induced Mdm-2 cleavage in neural progenitor cells (WB)
# Type: cell-based, human
# Settings: 1 µM reversine 24 h
# Description: The H9 human embryonic stem cell (hESC) line (WA09, WiCell) was maintained on mouse embryonic fibroblasts (MTI-GlobalStem) feeder culture in HUESM medium (20% KSR in KO-DMEM, 1% MEM-NEAA, 1% Pen–Strep, 0.1 mM 2 mercaptoethanol (Life technologies) 10 ng ml^−1 FGF2 (Biotechne), and differentiated into NPCs as previously described [Supplementary ref. 10] [Supplementary ref. 11]. In brief, hESC colonies were lifted with collagenase IV (1 mg ml^−1 in DMEM) at 37 °C for 1–2 h. Colonies lifted from the plate were transferred to a non-adherent plate (Corning) to generate embryoid bodies (EBs) for 1 day in N2/B27 medium (DMEM/F12-GlutaMAX, 1× N2 supplement, 1× B27 no RA supplement; Life). EBs were cultured in suspension in N2/B27 medium with dual-SMAD inhibitors (0.1 µM LDN193189 and 10 µM SB431542) for 7 days. […]
# H9-hNPCs were pretreated (or not) for 1 h with LJ3a and treated with 1 µM reversine (#10004412, Cayman Chemicals, Ann Arbor, MI) for 24 h. […] After the BCA assay for protein quantification, samples were subject to polyacrylamide gel electrophoresis-sodium dodecyl sulfate analysis (60 min, 200 V, 12% bis–tris 12-well gels), followed by transfer to nitrocellulose membrane (60 min, 30 V). […] Protein bands were quantified using Image Studio Lite Quantification software (LI-COR®, Lincoln, NE). […]
# recorded on the LJ3a sample. […]
smiles,measurement,setting,value
CC(C)[C@H](NC(=O)c1ccc2ccccc2n1)C(=O)N[C@@H](CC(=O)O)C(=O)N[C@H](C(=O)N1CC[C@H](CC(C)(C)C)[C@@H]1C(=O)NC(CC(=O)O)C(=O)COc1c(F)cccc1F)C(C)C (some centres unmarked) [LJ3a],effect on reversine-induced Mdm-2 cleavage,10 µM,completely abolished
same,effect on reversine-induced Mdm-2 cleavage,submicromolar concentrations,significantly prevented
